The results in this text go back to patent publication US8653070B2, “Hepatitis C virus inhibitors” (Enanta Pharmaceuticals, Inc., priority 2009, dated 2014).

Read-outs that look alike come from different tables or passages of the source.

The test system of this test is HCV 1b genotype replicon. Kind of test: HCV replicon assay (qRT-PCR or luciferase), genotype-1b replicon. The format is cell-based. As to conditions: Hepatitis C virus, HCV 1b replicon. The source says: HCV replicon cell lines (kindly provided by R. Bartenschlager) isolated from colonies as described by Lohman et. al. (Lohman et al. (1999) Science 285: 110-113, expressly incorporated by reference in its entirety) and used for all experiments. The HCV replicon has the nucleic acid sequence set forth in EMBL Accession No.: AJ242651, the coding sequence of which is from nucleotides 1801 to 8406.
The coding sequence of the published HCV replicon was synthesized and subsequently assembled in a modified plasmid pBR322 (Promega, Madison, Wis.) using standard molecular biology techniques. One replicon cell line (“SGR 11-7”) stably expresses HCV replicon RNA which consists of (i) the HCV 5′UTR fused to the first 12 amino acids of the capsid protein, (ii) the neomycin phosphotransferase gene (neo), (iii) the IRES from encephalomyocarditis virus (EMCV) and (iv) HCV NS2 to NS5B genes and the HCV 3′UTR. Another replicon cell line (“Huh-luc/neo-ET”) described by Vrolijk et. al. (Vrolijk et. al. (2003) Journal of Virological Methods 110:201-209, expressly incorporated by reference in its entirety) stably expresses HCV replicon RNA which consists of (i) the HCV 5′UTR fused to the first 12 amino acids of the capsid protein, (ii) the firefly luciferase reporter gene, (iii) the ubiquitin gene, (iv) the neomycin phosphotransferase gene (neo), (v) the IRES from encephalomyocarditis virus (EMCV) and (vi) HCV NS3 to NS5B genes that harbor cell culture adaptive mutations (E1202G, T12801, K1846T) and the HCV 3′UTR.
These cell lines are maintained at 37° C., 5% CO2, 100% relative humidity in DMEM (Cat#11965-084, Invitrogen), with 10% fetal calf serum (“FCS”, Invitrogen), 1% non-essential amino acids (Invitrogen), 1% of Glutamax (Invitrogen), 1% of 100× penicillin/streptomycin (Cat#15140-122, Invitrogen) and Geneticin (Cat#10131-027, Invitrogen) at 0.75 mg/ml or 0.5 mg/ml for 11-7 and Huh-luc/neo-ET cells, respectively.
EC50 values of single agent compounds and combinations are determined by HCV RNA detection using quantitative RT-PCR, according to the manufacturer's instructions, with a TAQMAN® One-Step RT-PCR Master Mix Reagents Kit (Cat# AB 4309169, Applied Biosystems) on an ABI Model 7500 thermocycler. The TAQMAN primers to use for detecting and quantifying HCV RNA obtained from Integrated DNA Technologies. HCV RNA is normalized to GAPDH RNA levels in drug-treated cells, which is detected and quantified using the Human GAPDH Endogenous Control Mix (Applied Biosystems, AB 4310884E). Total cellular RNA is purified from 96-well plates using the RNAqueous 96 kit (Ambion, Cat# AM1812). Chemical agent cytotoxicity is evaluated using an MTS assay according to the manufacturer's directions (Promega).
Since clinical drug resistance often develops in viral infections following single agent therapies, there is a need to assess the additive, antagonistic, or synergistic properties of combination therapies. We used the HCV replicon system to assess the potential use of the compound of the present invention or in combination therapies with Interferon alpha, cyclosporine analogs and inhibitors targeting other HCV proteins. The acute effects of a single or combinations of drugs are studied in the “Huh-luc/neo-ET” replicon with each chemical agent titrated in an X or Y direction in a 6 point two-fold dilution curve centered around the EC50 of each drug. Briefly, replicon cells are seeded at 7,000 cells per well in 90 ul DMEM (without phenol red, Invitrogen Cat.#31053-036) per well with 10% FCS, 1% non-essential amino acids, 1% of Glutamax and 1% of 100× penicillin/streptomycin and incubated overnight at 37° C., 5% CO2, 100% relative humidity. […]
For orientation: Replicon systems follow genome replication, usually without infectious particles.

Where [1] appears, read: read-out: Genotype-1b replicon EC50.
[2] abbreviates: read-out: Genotype-1b replicon EC50 Range.

Consider `COC(=O)N[C@H](C(=O)N1CCC[C@H]1c1nc(-c2ccc(C#Cc3ccc4[nH]c([C@@H]5CC(=C6CC6)CN5C(=O)[C@@H](NC(=O)OC)C(C)C)nc4c3)cc2)c[nH]1)C(C)C` [Example 334], for which the EC50 by setting is: under setting [1], 0.013 nM; under setting [2], 0.01 to 1 nM. As for `C=C1C[C@@H](c2nc(-c3ccc(C#Cc4ccc5[nH]c([C@@H]6C[C@@]7(CC=CCO7)CN6C(=O)[C@@H](NC(=O)OC)C(C)C)nc5c4)cc3)c[nH]2)N(C(=O)[C@@H](NC(=O)OC)C(C)C)C1` [Example 327], the EC50 under setting [2] is below 0.01 nM. Take `C=C1C[C@@H](c2nc(-c3ccc(C#Cc4ccc5[nH]c([C@@H]6CC7(CC7)CN6C(=O)[C@@H](NC(=O)OC)C(C)C)nc5c4)cc3)c[nH]2)N(C(=O)[C@@H](NC(=O)OC)C(C)C)C1` [Example 325]: the EC50 reads like this: under setting [1], 0.0059 nM; under setting [2], below 0.01 nM.

As to `C=C1C[C@@H](c2nc(-c3ccc(C#Cc4ccc5[nH]c([C@@H]6CC(=C)CN6C(=O)[C@@H](NC(=O)OC)C(C)C)nc5c4)cc3)c[nH]2)N(C(=O)[C@@H](NC(=O)OC)C(C)C)C1` [Example 336], the EC50 is 0.0064 nM under setting [1] and below 0.01 nM under setting [2]. On the same counts, the results for `C=C1C[C@@H](c2nc(-c3ccc(C#Cc4ccc5[nH]c([C@@H]6C[C@@]7(CCCOC7)CN6C(=O)[C@@H](NC(=O)OC)C(C)C)nc5c4)cc3)c[nH]2)N(C(=O)[C@@H](NC(=O)OC)C(C)C)C1` [Example 331] are 0.0137 nM and 0.01 to 1 nM. Regarding `CON=C1C[C@@H](c2nc3cc(C#Cc4ccc(-c5c[nH]c([C@@H]6CCCN6C(=O)[C@@H](NC(=O)OC)C(C)C)n5)cc4)ccc3[nH]2)N(C(=O)[C@@H](NC(=O)OC)C(C)C)C1` [Example 316], the EC50 under setting [2] was below 0.01 nM. Consider `C=C1C[C@@H](c2nc(-c3ccc(C#Cc4ccc5[nH]c([C@@H]6CCCN6C(=O)[C@@H](NC(=O)OC)C(C)C)nc5c4)cc3)c[nH]2)N(C(=O)[C@@H](NC(=O)OC)C(C)C)C1` [Example 300], for which the concentration giving a half-maximal response (EC50) by setting is: under setting [1], 0.0044 nM; under setting [2], below 0.01 nM. Consider `C=C1C[C@@H](c2nc(-c3ccc(C#Cc4ccc5[nH]c([C@@H]6C[C@]7(CCCOC7)CN6C(=O)[C@@H](NC(=O)OC)C(C)C)nc5c4)cc3)c[nH]2)N(C(=O)[C@@H](NC(=O)OC)C(C)C)C1` [Example 329], for which the concentration for a half-maximal effect (EC50) under setting [2] was below 0.01 nM.

As for `C=C1C[C@@H](c2nc(-c3ccc(-c4ccc(-c5c[nH]c([C@@H]6CCCN6C(=O)[C@@H](NC(=O)OC)C(C)C)n5)cc4)cc3)c[nH]2)N(C(=O)[C@@H](NC(=O)OC)C(C)C)C1` [Example 252], the EC50 is 0.0112 nM under setting [1] and 0.01 to 1 nM under setting [2]. Take `C=C1C[C@@H](c2nc(-c3ccc(C#Cc4ccc5[nH]c([C@@H]6C[C@@]7(CCOC7)CN6C(=O)[C@@H](NC(=O)OC)C(C)C)nc5c4)cc3)c[nH]2)N(C(=O)[C@@H](NC(=O)OC)C(C)C)C1` [Example 321]: the concentration for a half-maximal effect (EC50) under setting [2] fell in the range of 0.01 to 1 nM. On to `C=C1C[C@@H](c2nc3cc(C#Cc4ccc(-c5c[nH]c([C@@H]6CCCN6C(=O)[C@@H](NC(=O)OC)C(C)C)n5)cc4)ccc3[nH]2)N(C(=O)[C@@H](NC(=O)OC)C(C)C)C1` [Example 83], for which the EC50 by setting is: under setting [1], 0.0057 nM; under setting [2], below 0.01 nM. As to `C=C1C[C@@H](c2nc(-c3ccc(C#Cc4ccc5[nH]c([C@@H]6C[C@@]7(CCCO7)CN6C(=O)[C@@H](NC(=O)OC)C(C)C)nc5c4)cc3)c[nH]2)N(C(=O)[C@@H](NC(=O)OC)C(C)C)C1` [Example 319], the EC50 under setting [2] is 0.01 to 1 nM. With `C=C1C[C@@H](c2nc(-c3ccc(C#Cc4ccc5[nH]c([C@@H]6C[C@]7(CCOC7)CN6C(=O)[C@@H](NC(=O)OC)C(C)C)nc5c4)cc3)c[nH]2)N(C(=O)[C@@H](NC(=O)OC)C(C)C)C1` [Example 323], the EC50 is 0.0092 nM under setting [1] and below 0.01 nM under setting [2].

For orientation: EC50 means the midpoint of the concentration-response curve.
